Results as given in PubChem BioAssay (NCI).
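Dose response: 5 concentrations. Exposure: 48 h. Format: 96-well plates. Endpoint: linear interpolation; highest concentration if not reached. The concentration for full growth arrest is given as TGI.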

Columns and labels:
Experiment in all cases: inhibition of tumour cell growth, NCI panel, 48 h
RXF 393 renal = tested on: RXF 393 renal
PC-3 prostate = tested on: PC-3 prostate
UACC-62 melanoma = tested on: UACC-62 melanoma
ACHN renal = tested on: ACHN renal
MDA-MB-231 breast = tested on: MDA-MB-231 breast
SK-MEL-2 melanoma = tested on: SK-MEL-2 melanoma
HOP-62 NSCLC = tested on: HOP-62 NSCLC
MDA-N = tested on: MDA-N
K-562 leukemia = tested on: K-562 leukemia
COLO 205 colon = tested on: COLO 205 colon
SF-295 CNS = tested on: SF-295 CNS
HT29 colon = tested on: HT29 colon
HCT-116 colon = tested on: HCT-116 colon
SK-MEL-5 melanoma = tested on: SK-MEL-5 melanoma
OVCAR-8 ovarian = tested on: OVCAR-8 ovarian
OVCAR-4 ovarian = tested on: OVCAR-4 ovarian
A498 renal = tested on: A498 renal

Structure (SMILES) | TGI (RXF 393 renal) | TGI (PC-3 prostate) | TGI (UACC-62 melanoma) | TGI (ACHN renal) | TGI (MDA-MB-231 breast) | TGI (SK-MEL-2 melanoma) | TGI (HOP-62 NSCLC) | TGI (MDA-N) | TGI (K-562 leukemia) | TGI (COLO 205 colon) | TGI (SF-295 CNS) | TGI (HT29 colon) | TGI (HCT-116 colon) | TGI (SK-MEL-5 melanoma) | TGI (OVCAR-8 ovarian) | TGI (OVCAR-4 ovarian) | TGI (A498 renal)
O=C1C(=Nc2ccccc2)Oc2cc(O)ccc21 | > 100 µM | > 100 µM | > 100 µM | > 100 µM | > 100 µM | > 100 µM | > 100 µM | > 100 µM | > 100 µM | > 100 µM | > 100 µM | > 100 µM | > 100 µM | > 100 µM | > 100 µM | > 100 µM | > 100 µM
Cc1ccc(S(=O)(=O)Nn2c(S)c(C#N)c(-c3ccc([N+](=O)[O-])cc3)c(C#N)c2=O)cc1 | > 100 µM | > 100 µM | 98.2 µM | > 100 µM | 36.5 µM | 80.1 µM | > 100 µM | 73.1 µM | 53.2 µM | 98.3 µM | > 100 µM | > 100 µM | 32.8 µM | 29.5 µM | > 100 µM | > 100 µM | > 100 µM
CCOP(=O)(OCC)C1=C(c2ccccc2)OC(N)=C(C#N)C1c1ccc(Cl)cc1 (centres undefined) | > 100 µM | > 100 µM | > 100 µM | > 100 µM | > 100 µM | > 100 µM | > 100 µM | > 100 µM | > 100 µM | > 100 µM | > 100 µM | > 100 µM | > 100 µM | > 100 µM | > 100 µM | > 100 µM | > 100 µM
C=C1C(=O)O[C@H]2[C@H]3O[C@@H](C[C@@H]12)[C@@]1(C)CC[C@H](O1)C(C)=CCC[C@H]3C | 3.75 µM | 2.97 µM | 4.05 µM | 2.88 µM | 3.14 µM | 4.11 µM | 19.1 µM | 3 µM | 3.09 µM | 3.47 µM | 17.9 µM | 3.33 µM | 4.29 µM | 2.81 µM | 3.1 µM | 3.27 µM | 3.15 µM
O=C(/C=C/c1ccccc1)CSc1nc2ccc(I)cc2c(=O)n1Cc1ccccc1 | > 94.5 µM | > 96.4 µM | > 100 µM | > 100 µM | > 100 µM | 99 µM | 59.1 µM | > 100 µM | > 100 µM | > 67.8 µM | > 70.6 µM | > 100 µM | > 100 µM | 99.3 µM | > 100 µM | > 100 µM | 46.4 µM
CN(C)CCn1c(=O)c2ccc3c4c(nn3CCN(C)C)c3cc(O)ccc3n(c1=O)c24 | 0.977 µM | 2.98 µM | 0.585 µM | 0.689 µM | 0.727 µM | 0.576 µM | 0.566 µM | 0.603 µM | 1.56 µM | 0.609 µM | 0.271 µM | 0.262 µM | 1.08 µM | 0.787 µM | 0.124 µM | 0.392 µM | 0.83 µM
Oc1ccc(/C=C/c2ccc3cccc(O)c3n2)cc1O | 7.4 µM | 67.6 µM | 23.8 µM | 20.7 µM | 62.8 µM | 36 µM | 84.6 µM | 44.7 µM | > 100 µM | 29.6 µM | 76.9 µM | 37.7 µM | 14.5 µM | 13.4 µM | > 100 µM | > 100 µM | 30 µM
CCOC(=O)/C=C(\C(=O)OCC)n1ccc(=O)n(CC(=O)OCC)c1=O | 2.97 µM | 11.2 µM | 19.2 µM | 3.29 µM | 17.2 µM | 29.1 µM | 38.7 µM | 17 µM | 4 µM | 3.16 µM | 34.6 µM | 16.2 µM | 3.44 µM | 25.8 µM | 14.3 µM | > 31.2 µM | 31.7 µM
O=C(CCCN1CCC2(CC1)CC(=O)N(N1CCCCCC1)C2=O)c1ccc(F)cc1 | 97.9 µM | > 100 µM | > 100 µM | > 100 µM | > 100 µM | > 100 µM | > 100 µM | > 100 µM | > 100 µM | > 100 µM | 63.2 µM | 33.8 µM | > 100 µM | > 100 µM | 34.7 µM | > 100 µM | > 100 µM
O=C1OCC/C1=C/c1ccc(N=Nc2c(O)ccc3ccccc23)cc1 | 36.8 µM | 49.6 µM | 56.5 µM | 31.8 µM | > 100 µM | 55.2 µM | 45.8 µM | 33.5 µM | > 100 µM | 58 µM | 47.8 µM | 35 µM | 34.6 µM | 50.8 µM | 72 µM | 37.4 µM | 34.2 µM
COc1ccc(C(=O)/C=C/c2cccnc2)cc1OC | 18.6 µM | 28 µM | 28.4 µM | 26.7 µM | 23.8 µM | 27.3 µM | 28.2 µM | 25.6 µM | 43.8 µM | 22.9 µM | 26.3 µM | 15.2 µM | 16.3 µM | 27.4 µM | 18.6 µM | 25.7 µM | 27.8 µM
c1ccc2cc(CNCCOCCOCCNCc3ccc4ccccc4c3)ccc2c1 | 3.52 µM | 5.3 µM | 3.54 µM | 3.26 µM | 3.11 µM | 3.65 µM | 4.01 µM | 3.23 µM | 2.79 µM | 3.01 µM | 3.11 µM | 2.76 µM | 3.08 µM | 5.66 µM | 3.77 µM | 5.78 µM | 3.73 µM
COc1cccc(C2SCC(=O)N2c2ccc(-n3c(-c4ccccc4)nc4ccccc4c3=O)cc2)c1OC (centres undefined) | > 100 µM | > 100 µM | > 100 µM | > 100 µM | > 100 µM | > 100 µM | > 100 µM | > 100 µM | > 100 µM | > 100 µM | > 100 µM | > 100 µM | > 100 µM | > 100 µM | > 100 µM | > 100 µM | > 100 µM
NC(=O)NC(=O)c1cccc(NC(=O)CF)c1 | > 100 µM | > 100 µM | > 100 µM | > 100 µM | > 100 µM | > 100 µM | > 100 µM | > 100 µM | > 100 µM | > 100 µM | > 100 µM | > 100 µM | > 100 µM | > 100 µM | > 100 µM | > 100 µM | > 100 µM
O=C(Cc1ccccc1)NCCCN(CCCCN(CCCNC(=O)Cc1ccccc1)C(=O)OCc1ccccc1)C(=O)OCc1ccccc1 | > 100 µM | > 100 µM | > 100 µM | > 100 µM | > 100 µM | > 100 µM | > 100 µM | > 100 µM | > 100 µM | > 100 µM | > 100 µM | > 100 µM | > 100 µM | > 100 µM | > 100 µM | > 28.6 µM | > 100 µM
O=S(=O)(O)c1ccc2c(N=Nc3ccc(F)cc3)c(O)c(S(=O)(=O)O)cc2c1 | > 100 µM | > 100 µM | > 100 µM | > 100 µM | > 100 µM | > 100 µM | > 100 µM | > 100 µM | > 100 µM | > 100 µM | > 100 µM | > 100 µM | > 100 µM | > 100 µM | > 100 µM | > 100 µM | > 100 µM
COc1cc2c(cc1OC)C(C)N(C)c1c-2c(OC(C)=O)cc2cc(OC)c(OC)cc12 (centres undefined) | 31.1 µM | > 90.8 µM | 39.3 µM | 97 µM | 27.9 µM | 30.2 µM | > 79.7 µM | 38.3 µM | > 100 µM | 20 µM | 53.4 µM | > 58.9 µM | 35.2 µM | 15.8 µM | 33.2 µM | > 45.4 µM | > 52.9 µM
CCCCCC[C@H]1C(=O)O[C@H](C)[C@H](NC(=O)c2cccc(NC=O)c2OC)C(=O)O[C@@H](C)[C@@H]1OC(=O)CC(C)C (tested in a mixture with another compound) | > 100 µM | > 100 µM | > 100 µM | 49.2 µM | 91.7 µM | > 100 µM | > 100 µM | > 100 µM | > 100 µM | 34.7 µM | > 100 µM | > 100 µM | 50.3 µM | 38.7 µM | 30.4 µM | 24.9 µM | 47.2 µM
COC(=O)C1=C(C)NC(C)=C(C(=O)OC)C1c1cccc(NO)c1 | 27.1 µM | 30.4 µM | 34.3 µM | 26.8 µM | 31.4 µM | 30.8 µM | > 100 µM | 28.5 µM | > 100 µM | 30.3 µM | 83.1 µM | 32.4 µM | 26.4 µM | 29.4 µM | 30.2 µM | 27.8 µM | > 100 µM
Cn1cnc(N2CCCC2)c(C#N)c1=O | > 100 µM | > 100 µM | > 100 µM | > 100 µM | > 100 µM | > 100 µM | > 100 µM | > 100 µM | > 100 µM | > 100 µM | > 100 µM | > 100 µM | > 100 µM | > 100 µM | > 100 µM | > 100 µM | > 100 µM
Clc1nc(NCCc2ccccc2)c2ncn(-c3ccccc3)c2n1 | > 100 µM | 47.8 µM | 56.7 µM | 92.7 µM | 62.8 µM | 19.9 µM | 67.2 µM | 40.2 µM | 70.5 µM | 50.6 µM | > 100 µM | 34.2 µM | 56.4 µM | 32.5 µM | 90.6 µM | 42.1 µM | 41.9 µM
O=C1C(=C(I)I)c2ccccc2-c2ccccc21 | 3.22 µM | 13.5 µM | 10.7 µM | 5.59 µM | 4.31 µM | 19.7 µM | 24.3 µM | 4.6 µM | > 34.9 µM | 3.66 µM | 31.8 µM | 12.2 µM | 6.55 µM | 19.7 µM | 7.72 µM | 10.9 µM | 30.6 µM
